From US11021457B2, “Class of isoindolone-imide ring-1,3-dione-2-ene compounds, composition and use thereof” (WIGEN BIOMEDICINE TECHNOLOGY (SHANGHAI) CO., LTD., priority 2017, dated 2021)
Like-named read-outs stand apart in the source and are kept apart here.

Legend:
[1] = tested on: RPMI-8226; assay: Inhibition of tumor cell proliferation, CellTiter-Glo, RPMI-8226; assay type: cell-based; conditions: compound concentration 50 μM, 72 hours; for cell survival rate (% of control) at 50 µM: Homo sapiens, RPMI-8226, read-out: Inhibitory activity against proliferation (cell survival rate) RPMI-8226
Method in brief: (§1)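 Cells seeded at 2000-10000 per well, treated immediately (suspension) or after adherence (adherent) and cultured at 37° C, 5% CO2. Viability read by CellTiter-Glo at 72 h as blank-corrected survival rate vs control. Scored at 50 μM compound: survival 60-<90% +, >30-60% ++, ≤30% +++.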

[2] = tested on: SU-DHL6; assay: Inhibition of tumor cell proliferation, CellTiter-Glo, SU-DHL6; assay type: cell-based; conditions: compound concentration 50 μM, 72 hours; for cell survival rate (% of control) at 50 µM: Homo sapiens, SU-DHL-6, read-out: Inhibitory activity against proliferation (cell survival rate) SU-DHL6
Method in brief: as §1

[3] = biological target: LC3B (Homo sapiens (Human), UniProt Q9GZQ8); assay: Fluorescence polarization experiment targeting LC3B (GST-LC3B with FITC-labeled peptide)
[4] = tested on: BxPC-3; assay: Inhibition of tumor cell proliferation, CellTiter-Glo, BxPC-3; assay type: cell-based; conditions: compound concentration 50 μM, 72 hours; for cell survival rate (%) at 50 µM: Homo sapiens, BXPC-3, read-out: Inhibitory activity against proliferation (cell survival rate) BxPC-3
Method in brief: as §1

[5] = tested on: K562; assay: Inhibition of tumor cell proliferation, CellTiter-Glo, K562; assay type: cell-based; conditions: compound concentration 50 μM, 72 hours; for cell survival rate (%) at 50 µM: Homo sapiens, K562, read-out: Inhibitory activity against proliferation (cell survival rate) K562
Method in brief: as §1

[6] = tested on: MDA-MB-453; assay: Inhibition of tumor cell proliferation, CellTiter-Glo, MDA-MB-453; assay type: cell-based; conditions: compound concentration 50 μM, 72 hours; for cell survival rate (%) at 50 µM: Homo sapiens, MDA-MB-453, read-out: Inhibitory activity against proliferation (cell survival rate) MDA-MB-453
Method in brief: as §1

[7] = tested on: A549; assay: Inhibition of tumor cell proliferation, CellTiter-Glo, A549; assay type: cell-based; conditions: compound concentration 50 μM, 72 hours; for cell survival rate (% of control) at 50 µM: Homo sapiens, A549, read-out: Inhibitory activity against proliferation (cell survival rate) A549
Method in brief: as §1

[8] = GST-LC3B 180 nM, FITC-labeled peptide 18 nM, 25° C.

Row | IC50 [3] [µM] | SMILES | Inhibitory activity against proliferation (cell survival rate) RPMI-8226 [1] | Inhibitory activity against proliferation (cell survival rate) SU-DHL6 [2] | IC50 [3, 8] [µM] | Inhibitory activity against proliferation (cell survival rate) BxPC-3 [4] | Inhibitory activity against proliferation (cell survival rate) K562 [5] | Inhibitory activity against proliferation (cell survival rate) MDA-MB-453 [6] | cell survival rate (% of control) at 50 µM [1] [%] | cell survival rate (% of control) at 50 µM [2] [%] | cell survival rate (%) at 50 µM [4] [%] | cell survival rate (%) at 50 µM [5] [%] | cell survival rate (%) at 50 µM [6] [%] | cell survival rate (% of control) at 50 µM [7] [%] | Inhibitory activity against proliferation (cell survival rate) A549 [7]
1 |  | O=C1CCC(N2C(=O)c3cccc(NC(=O)[C@@H]4C[C@H](O)CN4CCNC=C4C(=O)CC(c5ccccc5)CC4=O)c3C2=O)C(=O)N1 (stereo partly drawn) [Compound 64] | ++ (30<survival rate (%)≤60) | +++ (survival rate (%)≤30) | 15 to 100 | + (60≤survival rate (%)<90) | +++ (survival rate (%)≤30) | +++ (survival rate (%)≤30) |  |  |  |  |  |  | 
2 |  | CC(C)[C@H](NC(=O)CN1CCN(CCNC=C2C(=O)CC(c3ccccc3)CC2=O)CC1)C(=O)N[C@@H](CCCNC(N)=O)C(=O)Nc1cccc2c1CN(C1CCC(=O)NC1=O)C2=O (stereo partly drawn) [Compound 60] | +++ (survival rate (%)≤30) | ++ (30<survival rate (%)≤60) | 15 to 100 | ++ (30<survival rate (%)≤60) | + (60≤survival rate (%)<90) | + (60≤survival rate (%)<90) |  |  |  |  |  |  | 
3 | 3 to 15 | CN1C(=O)/C(=C\Nc2cccc3c2CN(C2CCC(=O)NC2=O)C3=O)C(=O)c2ccc(C(F)(F)F)cc21 (stereo not drawn) [Compound 136] |  |  |  |  |  |  | ≤ 30 | 60 to 90 | 60 to 90 | 30 to 60 | ≤ 30 |  | 
4 |  | CC1(C#N)C(=O)/C(=C/Nc2cccc3c2CN(C2CCC(=O)NC2=O)C3=O)C(=O)CC1c1ccccc1 (stereo not drawn) [Compound 139] |  |  |  |  |  |  | ≤ 30 | ≤ 30 | 60 to 90 | ≤ 30 | ≤ 30 | 60 to 90 | 
5 |  | O=C1CCC(N2C(=O)c3cccc(NCCN4CCN(CCNC=C5C(=O)CC(c6ccccc6)CC5=O)CC4)c3C2=O)C(=O)N1 (stereo not drawn) [Compound 109] | +++ (survival rate (%)≤30) | + (60≤survival rate (%)<90) |  | ++ (30<survival rate (%)≤60) | ++ (30<survival rate (%)≤60) | + (60≤survival rate (%)<90) |  |  |  |  |  |  | ++ (30<survival rate (%)≤60)
6 |  | O=C1CCC(N2C(=O)c3cccc(NC(=O)OCc4ccc(NC=C5C(=O)CC(c6ccccc6)CC5=O)nc4)c3C2=O)C(=O)N1 (stereo not drawn) [Compound 83] | + (60≤survival rate (%)<90) | + (60≤survival rate (%)<90) |  | + (60≤survival rate (%)<90) | + (60≤survival rate (%)<90) | ++ (30<survival rate (%)≤60) |  |  |  |  |  |  | + (60≤survival rate (%)<90)
7 |  | O=C1CCC(N2Cc3c(NC=C4C(=O)CN(c5ccccc5)CC4=O)cccc3C2=O)C(=O)N1 (stereo not drawn) [Compound 119] |  |  |  |  |  |  | 30 to 60 | 30 to 60 | 30 to 60 | 30 to 60 | 30 to 60 | 60 to 90 | 
8 |  | O=C1CCC(N2Cc3c(NC(=O)CN4CCN(CCNC=C5C(=O)CC(c6ccccc6)CC5=O)CC4)cccc3C2=O)C(=O)N1 (stereo not drawn) [Compound 54] | ++ (30<survival rate (%)≤60) | +++ (survival rate (%)≤30) |  | + (60≤survival rate (%)<90) | +++ (survival rate (%)≤30) | ++ (30<survival rate (%)≤60) |  |  |  |  |  |  | +++ (survival rate (%)≤30)
